{"source": "ChEMBL document CHEMBL5537159", "about": "“Discovery and SAR of JTE-151: A Novel RORγ Inhibitor for Clinical Development” (J Med Chem, 2024)", "key": {"[1]": {"assay": "Lipophilicity, logD of compound by RP-HPLC analysis", "type": "physicochemical"}, "[2]": {"assay": "Elimination half life in CD(SD) rat at 1 mg/kg, iv administered as single dose and measured after 24 hrs", "type": "ADME, organism-based", "details": "in vivo, read-out: beta t1/2 (converted)"}, "[3]": {"assay": "Elimination half life in C57BL/6J mouse at 1 mg/kg, iv administered as single dose and measured after 24 hrs", "type": "ADME, organism-based", "details": "in vivo, read-out: beta t1/2 (converted)"}, "[4]": {"assay": "Total body clearance in C57BL/6J mouse at 1 mg/kg, iv administered as single dose and measured after 24 hrs", "type": "ADME, organism-based", "details": "in vivo"}, "[5]": {"assay": "Oral bioavailability in C57BL/6J mouse at 3 mg/kg administered as single dose and measured after 24 hrs", "type": "ADME, organism-based", "details": "in vivo"}, "[6]": {"assay": "Elimination half life in Beagle dog at 1 mg/kg, iv administered as single dose and measured after 24 hrs", "type": "ADME, organism-based, Canis lupus familiaris", "details": "in vivo, read-out: beta t1/2 (converted)"}, "[7]": {"assay": "Total body clearance in Beagle dog at 1 mg/kg, iv administered as single dose and measured after 24 hrs", "type": "ADME, organism-based, Canis lupus familiaris", "details": "in vivo"}, "[8]": {"assay": "Volume of distribution at steady state in Beagle dog at 1 mg/kg, iv administered as single dose and measured after 24 hrs", "type": "ADME, organism-based, Canis lupus familiaris", "details": "in vivo, read-out: Vdss"}, "[9]": {"assay": "MRT in Beagle dog at 3 mg/kg, po administered as single dose and measured after 24 hrs", "type": "ADME, organism-based, Canis lupus familiaris", "details": "in vivo"}, "[10]": {"assay": "Selectivity ratio of antagonist activity at human RORbeta to inhibition of RORgamma (unknown origin)"}, "[11]": {"assay": "Selectivity ratio of antagonist activity at mouse GR to inhibition of RORgamma (unknown origin)"}, "[12]": {"assay": "Selectivity ratio of antagonist activity at human AR to inhibition of RORgamma (unknown origin)"}, "[13]": {"assay": "Selectivity ratio of antagonist activity at human ERalpha to inhibition of RORgamma (unknown origin)"}, "[14]": {"assay": "Selectivity ratio of antagonist activity at human VDR to inhibition of RORgamma (unknown origin)"}, "[15]": {"assay": "Selectivity ratio of antagonist activity at human FXR to inhibition of RORgamma (unknown origin)"}, "[16]": {"assay": "Selectivity ratio of antagonist activity at mouse LXRalpha to inhibition of RORgamma (unknown origin)"}, "[17]": {"assay": "Selectivity ratio of agonist activity at human ERalpha to inhibition of RORgamma (unknown origin)"}, "[18]": {"assay": "Selectivity ratio of agonist activity at mouse LXRalpha to inhibition of RORgamma (unknown origin)"}, "[19]": {"assay": "Selectivity ratio of agonist activity at human PPARalpha to inhibition of RORgamma (unknown origin)"}, "[20]": {"assay": "Selectivity ratio of agonist activity at human PPARgamma to inhibition of RORgamma (unknown origin)"}, "[21]": {"assay": "Selectivity ratio of agonist activity at human RARalpha to inhibition of RORgamma (unknown origin)"}, "[22]": {"assay": "Selectivity ratio of agonist activity at human RXRalpha to inhibition of RORgamma (unknown origin)"}, "[23]": {"molecular_target": "Voltage-gated L-type calcium channel (Rattus norvegicus, UniProt P22002+Q02485+P27732)", "assay": "Inhibition of rat L-type Ca2+ channel", "type": "protein assay"}, "[24]": {"molecular_target": "Cannabinoid receptor 1 (Homo sapiens, UniProt P21554)", "sequence (P21554 whole entry)": "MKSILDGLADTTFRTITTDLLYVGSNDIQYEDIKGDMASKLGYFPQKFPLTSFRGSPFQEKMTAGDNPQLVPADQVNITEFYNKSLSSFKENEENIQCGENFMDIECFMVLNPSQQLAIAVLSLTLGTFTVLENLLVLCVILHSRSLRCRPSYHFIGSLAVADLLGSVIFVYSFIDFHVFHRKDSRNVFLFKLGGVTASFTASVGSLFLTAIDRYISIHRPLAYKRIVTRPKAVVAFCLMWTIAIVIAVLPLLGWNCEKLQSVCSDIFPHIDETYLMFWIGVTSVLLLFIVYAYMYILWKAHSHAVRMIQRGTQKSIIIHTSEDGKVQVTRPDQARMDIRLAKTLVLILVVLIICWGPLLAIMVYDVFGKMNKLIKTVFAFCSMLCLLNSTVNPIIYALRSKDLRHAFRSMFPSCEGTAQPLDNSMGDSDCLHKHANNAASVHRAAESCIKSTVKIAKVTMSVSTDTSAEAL", "assay": "Inhibition of human CB1 receptor"}, "[25]": {"assay": "Inhibition of rat GABA-B receptor"}, "[26]": {"assay": "Inhibition of rat glutamate receptor"}, "[27]": {"molecular_target": "Histamine H1 receptor (Homo sapiens, UniProt P35367)", "sequence (P35367 whole entry)": "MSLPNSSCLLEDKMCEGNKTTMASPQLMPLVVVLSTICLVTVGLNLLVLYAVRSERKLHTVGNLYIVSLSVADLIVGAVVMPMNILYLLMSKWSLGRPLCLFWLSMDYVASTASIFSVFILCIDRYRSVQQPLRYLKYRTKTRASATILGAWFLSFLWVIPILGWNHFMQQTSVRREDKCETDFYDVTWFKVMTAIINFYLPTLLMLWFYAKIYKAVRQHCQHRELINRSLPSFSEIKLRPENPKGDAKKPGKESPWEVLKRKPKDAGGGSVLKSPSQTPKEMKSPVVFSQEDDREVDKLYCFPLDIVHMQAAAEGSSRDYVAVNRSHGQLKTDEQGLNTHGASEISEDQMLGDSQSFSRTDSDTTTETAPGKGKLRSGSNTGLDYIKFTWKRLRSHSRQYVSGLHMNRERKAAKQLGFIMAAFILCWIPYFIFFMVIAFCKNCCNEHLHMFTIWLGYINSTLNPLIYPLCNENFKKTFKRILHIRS", "assay": "Inhibition of human histamine H1 receptor"}, "[28]": {"assay": "Inhibition of rat Muscarinic receptor"}, "[29]": {"molecular_target": "Acetylcholinesterase (Electrophorus electricus, UniProt O42275)", "sequence (O42275 whole entry)": "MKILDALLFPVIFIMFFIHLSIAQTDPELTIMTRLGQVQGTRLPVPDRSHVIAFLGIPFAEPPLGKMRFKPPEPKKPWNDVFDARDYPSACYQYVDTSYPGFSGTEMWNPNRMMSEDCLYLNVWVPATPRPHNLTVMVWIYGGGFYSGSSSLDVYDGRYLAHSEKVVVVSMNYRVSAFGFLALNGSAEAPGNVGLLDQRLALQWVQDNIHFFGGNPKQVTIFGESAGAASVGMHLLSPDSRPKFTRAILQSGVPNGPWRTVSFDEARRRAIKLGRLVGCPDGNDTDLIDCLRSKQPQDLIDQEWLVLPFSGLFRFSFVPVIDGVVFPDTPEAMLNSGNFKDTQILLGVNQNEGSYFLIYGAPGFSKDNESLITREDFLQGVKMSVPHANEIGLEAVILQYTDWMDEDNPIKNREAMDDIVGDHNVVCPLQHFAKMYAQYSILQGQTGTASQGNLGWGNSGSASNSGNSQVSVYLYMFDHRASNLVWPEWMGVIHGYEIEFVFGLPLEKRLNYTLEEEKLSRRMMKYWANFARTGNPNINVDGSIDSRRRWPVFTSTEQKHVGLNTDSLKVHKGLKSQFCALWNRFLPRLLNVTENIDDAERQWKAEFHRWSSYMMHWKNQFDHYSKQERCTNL", "assay": "Inhibition of Electric eel AChE"}, "[30]": {"molecular_target": "Prostaglandin G/H synthase 1 (Ovis aries, UniProt P05979)", "sequence (P05979 whole entry)": "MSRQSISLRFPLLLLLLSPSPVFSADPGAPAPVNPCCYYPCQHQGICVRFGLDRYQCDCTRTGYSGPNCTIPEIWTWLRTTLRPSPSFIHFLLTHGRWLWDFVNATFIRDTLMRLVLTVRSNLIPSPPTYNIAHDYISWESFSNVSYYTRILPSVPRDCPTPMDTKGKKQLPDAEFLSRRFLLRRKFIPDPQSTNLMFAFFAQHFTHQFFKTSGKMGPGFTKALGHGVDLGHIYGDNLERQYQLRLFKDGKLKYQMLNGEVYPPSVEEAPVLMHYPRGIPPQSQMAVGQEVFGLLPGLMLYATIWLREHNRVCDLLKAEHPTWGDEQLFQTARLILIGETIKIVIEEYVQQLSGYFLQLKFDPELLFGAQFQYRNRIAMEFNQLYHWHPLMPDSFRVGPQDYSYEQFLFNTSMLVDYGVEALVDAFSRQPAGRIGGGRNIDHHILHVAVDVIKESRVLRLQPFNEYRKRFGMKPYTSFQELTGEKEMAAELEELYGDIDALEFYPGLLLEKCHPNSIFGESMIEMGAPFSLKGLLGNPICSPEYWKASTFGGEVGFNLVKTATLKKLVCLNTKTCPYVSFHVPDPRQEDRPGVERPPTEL", "assay": "Inhibition of ovine cox-1"}, "[31]": {"molecular_target": "Amine oxidase [flavin-containing] A (Homo sapiens, UniProt P21397)", "sequence (P21397 whole entry)": "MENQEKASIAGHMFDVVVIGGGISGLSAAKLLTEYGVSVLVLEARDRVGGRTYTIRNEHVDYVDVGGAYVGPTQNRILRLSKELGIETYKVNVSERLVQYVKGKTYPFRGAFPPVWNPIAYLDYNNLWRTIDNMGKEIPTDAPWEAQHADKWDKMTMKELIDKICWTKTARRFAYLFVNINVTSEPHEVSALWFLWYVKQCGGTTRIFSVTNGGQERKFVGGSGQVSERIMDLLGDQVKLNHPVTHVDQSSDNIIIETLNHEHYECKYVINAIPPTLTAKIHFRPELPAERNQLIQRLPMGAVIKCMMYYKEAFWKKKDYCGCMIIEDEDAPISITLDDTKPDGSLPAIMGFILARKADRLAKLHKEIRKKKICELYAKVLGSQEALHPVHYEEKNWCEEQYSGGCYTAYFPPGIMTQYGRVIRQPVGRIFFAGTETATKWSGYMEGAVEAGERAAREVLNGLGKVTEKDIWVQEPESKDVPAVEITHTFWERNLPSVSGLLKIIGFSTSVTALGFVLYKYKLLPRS", "assay": "Inhibition of human MAO-A"}, "[32]": {"molecular_target": "Cytochrome P450 2C8 (Homo sapiens, UniProt P10632)", "sequence (P10632 whole entry)": "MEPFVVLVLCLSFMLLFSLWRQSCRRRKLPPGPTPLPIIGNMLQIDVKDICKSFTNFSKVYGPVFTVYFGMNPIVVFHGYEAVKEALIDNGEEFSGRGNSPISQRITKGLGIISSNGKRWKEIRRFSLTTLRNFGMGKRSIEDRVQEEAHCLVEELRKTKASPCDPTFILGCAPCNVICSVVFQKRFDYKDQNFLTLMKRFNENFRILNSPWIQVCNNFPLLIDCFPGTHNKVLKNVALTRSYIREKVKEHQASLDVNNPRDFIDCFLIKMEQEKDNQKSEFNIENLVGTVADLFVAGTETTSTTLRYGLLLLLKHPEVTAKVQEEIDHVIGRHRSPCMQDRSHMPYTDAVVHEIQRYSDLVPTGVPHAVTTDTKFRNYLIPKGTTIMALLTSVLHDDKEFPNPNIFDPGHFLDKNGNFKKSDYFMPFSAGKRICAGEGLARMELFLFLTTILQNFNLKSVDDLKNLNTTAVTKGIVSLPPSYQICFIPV", "assay": "Inhibition of CYP2C8 in human liver microsomes", "type": "ADME, Microsome"}, "[33]": {"molecular_target": "Cytochrome P450 1A2 (Homo sapiens, UniProt P05177)", "sequence (P05177 whole entry)": "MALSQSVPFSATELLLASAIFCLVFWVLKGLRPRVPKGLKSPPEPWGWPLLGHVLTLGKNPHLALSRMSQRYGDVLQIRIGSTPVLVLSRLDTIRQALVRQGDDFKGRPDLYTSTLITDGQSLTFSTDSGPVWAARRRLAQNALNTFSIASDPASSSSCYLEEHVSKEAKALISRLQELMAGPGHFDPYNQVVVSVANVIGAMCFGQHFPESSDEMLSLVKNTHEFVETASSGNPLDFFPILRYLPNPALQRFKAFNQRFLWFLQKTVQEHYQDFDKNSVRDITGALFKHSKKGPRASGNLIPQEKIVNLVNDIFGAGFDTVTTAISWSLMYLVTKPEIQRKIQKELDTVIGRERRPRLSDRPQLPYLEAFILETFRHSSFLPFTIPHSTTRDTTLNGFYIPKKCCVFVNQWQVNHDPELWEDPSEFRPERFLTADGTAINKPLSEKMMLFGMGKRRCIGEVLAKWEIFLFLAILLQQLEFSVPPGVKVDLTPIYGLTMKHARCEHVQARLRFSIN", "assay": "Inhibition of CYP1A2 in human liver microsomes", "type": "ADME, Microsome"}, "[34]": {"molecular_target": "Cytochrome P450 2A6 (Homo sapiens, UniProt P11509)", "sequence (P11509 whole entry)": "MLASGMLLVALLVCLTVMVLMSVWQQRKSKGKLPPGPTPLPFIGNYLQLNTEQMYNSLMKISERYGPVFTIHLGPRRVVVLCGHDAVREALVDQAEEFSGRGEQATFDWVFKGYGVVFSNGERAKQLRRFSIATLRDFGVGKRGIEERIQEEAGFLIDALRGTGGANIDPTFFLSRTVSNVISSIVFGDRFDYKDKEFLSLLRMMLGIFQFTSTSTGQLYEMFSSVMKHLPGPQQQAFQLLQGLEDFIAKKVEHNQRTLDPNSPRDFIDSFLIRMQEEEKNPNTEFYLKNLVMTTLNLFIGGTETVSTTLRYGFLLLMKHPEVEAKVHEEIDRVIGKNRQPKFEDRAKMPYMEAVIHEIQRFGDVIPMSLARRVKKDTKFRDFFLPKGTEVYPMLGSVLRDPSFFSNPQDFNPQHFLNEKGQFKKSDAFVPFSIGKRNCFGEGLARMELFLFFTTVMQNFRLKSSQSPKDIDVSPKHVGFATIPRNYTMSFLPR", "assay": "Inhibition of CYP2A6 in human liver microsomes", "type": "ADME, Microsome"}, "[35]": {"molecular_target": "Cytochrome P450 3A5 (Homo sapiens, UniProt P20815)", "sequence (P20815 whole entry)": "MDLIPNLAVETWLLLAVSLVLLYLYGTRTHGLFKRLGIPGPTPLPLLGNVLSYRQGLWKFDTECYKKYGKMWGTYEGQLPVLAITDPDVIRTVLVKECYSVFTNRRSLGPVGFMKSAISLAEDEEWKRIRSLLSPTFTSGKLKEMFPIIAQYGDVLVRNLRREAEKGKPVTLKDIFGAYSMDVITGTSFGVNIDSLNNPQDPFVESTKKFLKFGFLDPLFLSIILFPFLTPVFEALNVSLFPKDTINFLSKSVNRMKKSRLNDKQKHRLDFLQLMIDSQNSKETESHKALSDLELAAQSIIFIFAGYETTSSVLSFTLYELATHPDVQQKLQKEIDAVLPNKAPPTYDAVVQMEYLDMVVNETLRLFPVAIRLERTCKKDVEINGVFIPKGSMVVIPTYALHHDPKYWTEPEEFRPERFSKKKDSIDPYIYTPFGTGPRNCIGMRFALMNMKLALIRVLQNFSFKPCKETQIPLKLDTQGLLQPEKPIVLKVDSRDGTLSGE", "assay": "Inhibition of CYP3A5 in human liver microsomes using midazolam as substrate", "type": "ADME, Microsome"}, "[36]": {"assay": "Genotoxicity in Salmonella typhimurium TA100 at 23 to 750 ug in presence of S9 fraction by bacterial reverse mutation test", "type": "toxicity, subcellular, Salmonella enterica subsp. enterica serovar Typhimurium", "details": "dose 23-750 µg"}, "[37]": {"assay": "Genotoxicity in Salmonella typhimurium TA1535 at 188 to 5000 ug in presence of S9 fraction by bacterial reverse mutation test", "type": "toxicity, subcellular, Salmonella enterica subsp. enterica serovar Typhimurium", "details": "dose 188-5000 µg"}, "[38]": {"assay": "Genotoxicity in Salmonella typhimurium TA1535 at 188 to 5000 ug in absence of S9 fraction by bacterial reverse mutation test", "type": "toxicity, Salmonella enterica subsp. enterica serovar Typhimurium", "details": "in vivo; dose 188-5000 µg"}, "[39]": {"assay": "Toxicity in CHL cells assessed as chromosomal aberration at 120 to 140 ug/ml incubated for 6 hrs in presence of S9 fraction", "type": "subcellular, Cricetulus griseus", "details": "chinese hamster, s9, 6 h, dose 120-140 µg/ml"}, "[40]": {"assay": "Toxicity in CHL cells assessed as chromosomal aberration at 60 to 80 ug/ml incubated for 6 hrs in absence of S9 fraction", "type": "cell-based, Cricetulus griseus", "details": "chinese hamster, dose 60-80 µg/ml"}, "[41]": {"assay": "Cmax in human at 60 […], po administered as single dose and measured upto 144 hrs", "type": "ADME, organism-based", "details": "in vivo"}, "[42]": {"assay": "Cmax in human at 400 […], po administered as single dose and measured upto 144 hrs", "type": "ADME, organism-based", "details": "in vivo"}, "[43]": {"assay": "Tmax in human at 100 […], po administered as single dose and measured upto 144 hrs", "type": "ADME, organism-based", "details": "in vivo"}, "[44]": {"assay": "Tmax in human at 200 […], po administered as single dose and measured upto 144 hrs", "type": "ADME, organism-based", "details": "in vivo"}, "[45]": {"assay": "Tmax in human at 400 […], po administered as single dose and measured upto 144 hrs", "type": "ADME, organism-based", "details": "in vivo"}, "[46]": {"assay": "Tmax in human at 1000 […], po administered as single dose and measured upto 144 hrs", "type": "ADME, organism-based", "details": "in vivo"}, "[47]": {"assay": "AUClast in human at 200 mg/kg, po administered as single dose and measured upto 144 hrs", "type": "ADME, organism-based", "details": "in vivo"}, "[48]": {"assay": "AUClast in human at 1000 mg/kg, po administered as single dose and measured upto 144 hrs", "type": "ADME, organism-based", "details": "in vivo"}, "[49]": {"assay": "Elimination half life in human at 30 mg/kg, po administered as single dose and measured upto 144 hrs", "type": "ADME, organism-based", "details": "in vivo, read-out: beta t1/2 (converted)"}, "[50]": {"assay": "Elimination half life in human at 600 mg/kg, po administered as single dose and measured upto 144 hrs", "type": "ADME, organism-based", "details": "in vivo, read-out: beta t1/2 (converted)"}, "[51]": {"assay": "Toxicity in Beagle dog assessed as development-limiting toxicity at 30 to 100 mg/kg, po administered once daily and measured on day 1,14 and 28", "type": "organism-based, Canis lupus familiaris", "details": "in vivo, 672 h, dose 30-100 mg/kg, time 28 day"}}, "note": "pIC50: −log10 of the molar value.", "data": [{"smiles": "Cc1ccc(NC(=O)C[C@H](CCC(=O)O)c2noc([C@H]3C[C@@H](CC(C)(C)C)C3)c2C2CC2)c(Cl)c1", "values": [{"measurement": "logD", "setting": "[1]", "value": 5.1}, {"measurement": "half-life", "setting": "[2]", "value": 3, "unit": "h"}, {"measurement": "half-life", "setting": "[3]", "value": 3.8, "unit": "h"}, {"measurement": "clearance", "setting": "[4]", "value": 0.5, "unit": "mL/min/kg"}, {"measurement": "bioavailability", "setting": "[5]", "value": 98, "unit": "%"}, {"measurement": "half-life", "setting": "[6]", "value": 5.5, "unit": "h"}, {"measurement": "clearance", "setting": "[7]", "value": 0.5, "unit": "mL/min/kg"}, {"measurement": "Vd", "setting": "[8]", "value": 0.19, "unit": "L/kg"}, {"measurement": "MRT", "setting": "[9]", "value": 6.6, "unit": "h"}, {"measurement": "Selectivity ratio", "setting": "[10]", "value": "> 100"}, {"measurement": "Selectivity ratio", "setting": "[11]", "value": "> 100"}, {"measurement": "Selectivity ratio", "setting": "[12]", "value": "> 100"}, {"measurement": "Selectivity ratio", "setting": "[13]", "value": "> 100"}, {"measurement": "Selectivity ratio", "setting": "[14]", "value": "> 100"}, {"measurement": "Selectivity ratio", "setting": "[15]", "value": "> 100"}, {"measurement": "Selectivity ratio", "setting": "[16]", "value": "> 100"}, {"measurement": "Selectivity ratio", "setting": "[17]", "value": "> 100"}, {"measurement": "Selectivity ratio", "setting": "[18]", "value": "> 100"}, {"measurement": "Selectivity ratio", "setting": "[19]", "value": "> 100"}, {"measurement": "Selectivity ratio", "setting": "[20]", "value": "> 100"}, {"measurement": "Selectivity ratio", "setting": "[21]", "value": "> 100"}, {"measurement": "Selectivity ratio", "setting": "[22]", "value": "> 100"}, {"measurement": "IC50", "setting": "[23]", "value": "> 10", "unit": "µM"}, {"measurement": "pIC50", "setting": "[24]", "value": "< 5.00"}, {"measurement": "pIC50", "setting": "[25]", "value": "< 5.00"}, {"measurement": "pIC50", "setting": "[26]", "value": "< 5.00"}, {"measurement": "pIC50", "setting": "[27]", "value": "< 5.00"}, {"measurement": "pIC50", "setting": "[28]", "value": "< 5.00"}, {"measurement": "pIC50", "setting": "[29]", "value": "< 5.00"}, {"measurement": "pIC50", "setting": "[30]", "value": "< 5.00"}, {"measurement": "pIC50", "setting": "[31]", "value": "< 5.00"}, {"measurement": "pIC50", "setting": "[32]", "value": 5.17}, {"measurement": "pIC50", "setting": "[33]", "value": "< 5.00"}, {"measurement": "pIC50", "setting": "[34]", "value": "< 5.00"}, {"measurement": "pIC50", "setting": "[35]", "value": "< 5.00"}, {"measurement": "Activity", "setting": "[36]", "value": "Non-Toxic"}, {"measurement": "Activity", "setting": "[37]", "value": "Non-Toxic"}, {"measurement": "Activity", "setting": "[38]", "value": "Non-Toxic"}, {"measurement": "Activity", "setting": "[39]", "value": "Non-Toxic"}, {"measurement": "Activity", "setting": "[40]", "value": "Non-Toxic"}, {"measurement": "Cmax", "setting": "[41]", "value": 2260, "unit": "ng/mL"}, {"measurement": "Cmax", "setting": "[42]", "value": 17500, "unit": "ng/mL"}, {"measurement": "Tmax", "setting": "[43]", "value": 3.03, "unit": "h"}, {"measurement": "Tmax", "setting": "[44]", "value": 3.25, "unit": "h"}, {"measurement": "Tmax", "setting": "[45]", "value": 3, "unit": "h"}, {"measurement": "Tmax", "setting": "[46]", "value": 3.5, "unit": "h"}, {"measurement": "AUC(0-t) at 144 h", "setting": "[47]", "value": 49.5, "unit": "µg·h/mL"}, {"measurement": "AUC(0-t) at 144 h", "setting": "[48]", "value": 241, "unit": "µg·h/mL"}, {"measurement": "half-life", "setting": "[49]", "value": 5.63, "unit": "h"}, {"measurement": "half-life", "setting": "[50]", "value": 7.33, "unit": "h"}, {"measurement": "Activity", "setting": "[51]", "value": "Non-Toxic"}]}]}
